Results from patent US20230382950A1 (priority 2020, published 2023).
Like-named read-outs stand apart in the source and are kept apart here. *1 amine or outer side, *2 acyl side, *3 side chain or, on linkers, in order; H or OH if unused. Where a SMILES comes first, the peptide text is derived from it. Bridges are numbered along the chain shown (N, C = ends). [ ]: non-standard residue; d: D form. The star is where a group is joined. Ala(piperidin-4-yl) = O=C([C@H](CC1CCN([*:3])CC1)N[*:1])[*:2]; Malonyl(2,2-Me2,histaminyl) = CC(C)(C(=O)NCCc1cnc[nH]1)C(=O)*; dBip = N[C@H](Cc1ccc(-c2ccccc2)cc1)C(=O)O; Oic = O=C(O)[C@@H]1C[C@@H]2CCCC[C@@H]2N1; Phe(4-Br) = N[C@@H](Cc1ccc(Br)cc1)C(=O)O; hArg = N=C(N)NCCCC[C@H](N)C(=O)O; Pip = O=C(O)[C@@H]1CCCCN1; Nle = CCCC[C@H](N)C(=O)O

Assays:
[1] = target: T1, human Apelin receptor (Homo sapiens, UniProt P35414); assay: cAMP accumulation assay (HTRF), functional agonism, CHO cells stably expressing the human Apelin receptor; assay type: cell-based; settings: for Emax: CHO
T1 sequence (P35414 1-380): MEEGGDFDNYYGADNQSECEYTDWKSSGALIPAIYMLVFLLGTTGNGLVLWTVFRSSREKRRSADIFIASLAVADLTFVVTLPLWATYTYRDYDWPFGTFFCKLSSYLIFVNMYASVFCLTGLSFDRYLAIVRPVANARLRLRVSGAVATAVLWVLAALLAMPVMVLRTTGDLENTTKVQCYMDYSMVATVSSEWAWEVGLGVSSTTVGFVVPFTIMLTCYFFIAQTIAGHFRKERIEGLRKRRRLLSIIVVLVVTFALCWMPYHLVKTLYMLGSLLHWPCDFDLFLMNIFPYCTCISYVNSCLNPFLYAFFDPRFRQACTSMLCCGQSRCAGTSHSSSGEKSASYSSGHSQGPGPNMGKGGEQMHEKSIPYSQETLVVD
Text: cAMP functional assay. cAMP production was quantified using the Homogeneous Time-Resolved Fluorescence (HTRF) cAMP dynamic-2 assay (Cisbio, France).

[2] = target: T1, human Apelin receptor; assay: β-arrestin accumulation assay, CHO-K1 cells overexpressing human Apelin receptor and β-arrestin (DiscoverRx); assay type: cell-based; design: host or cells: CHO-K1 cells
Protocol: β-arrestin assay. […] After 16 h incubation at 37° C. media was removed and cells were incubated at 37° C. for 90 min in serum free media containing increasing concentrations of test agonist. The assay reaction was stopped by adding detection reagent (DiscoveRx) and incubation for 60 min in the dark. Levels of receptor activation were then measured on a PheraStar fluorescence plate reader (BMG LabTech) and EC50 values were determined using Graphpad Prism.

Row | Emax ([1]; read-out: Emax) | EC50 ([1]; read-out: pEC50 (converted)) | EC50 ([2]; read-out: pEC50 (converted)) | Compound | EC50 [1] | Emax [1] | EC50 [2]
1 | 28.4% | 100 nM | > 10000 nM | CCCC[C@H](NC(=O)[C@@H]1C[C@@H]2CCCC[C@@H]2N1C(=O)[C@@H]1CCCCNC(=O)CC[C@H](NC(=O)[C@H](CC(C)C)NC(=O)[C@@H](CCCNC(=N)N)NC(=O)[C@@H]2CCCCN2C(=O)[C@H](CCCCNC(=N)N)NC(=O)[C@H](CCC(N)=O)NC(=O)[C@@H](CCCNC(=N)N)NC(=O)C(C)(C)C(=O)NCCc2c[nH]cn2)C(=O)N[C@@H](Cc2ccc(Br)cc2)C(=O)N[C@@H](CC2CCNCC2)C(=O)N1)C(=O)N1CCC[C@H]1C(=O)N[C@H](Cc1ccc(-c2ccccc2)cc1)C(=O)O [Example 4] ({Malonyl(2,2-Me2,histaminyl)}-[dR]Q[hArg][Pip][dR]LE[Phe(4-Br)][Ala(piperidin-4-yl)]K[Oic][Nle]P[dBip]-OH; lactam 7-10) |  |  | 
2 | 48.2% | 5.01 nM | > 10000 nM | CC(C)C[C@H](NC(=O)[C@@H](CCCNC(=N)N)NC(=O)[C@@H]1CCCCN1C(=O)[C@H](CCCCNC(=N)N)NC(=O)[C@H](CCC(N)=O)NC(=O)C(C)(C)C(=O)NCCc1c[nH]cn1)C(=O)N[C@H]1CCC(=O)NCCCC[C@@H](C(=O)N2[C@H](C(=O)N[C@@H](Cc3ccc(Br)cc3)C(=O)N3CCC[C@H]3C(=O)N[C@H](Cc3ccc(-c4ccccc4)cc3)C(=O)O)C[C@@H]3CCCC[C@@H]32)NC(=O)[C@H](CC2CCNCC2)NC(=O)[C@H](Cc2c[nH]cn2)NC1=O [Example 5] ({Malonyl(2,2-Me2,histaminyl)}-Q[hArg][Pip][dR]LEH[Ala(piperidin-4-yl)]K[Oic][Phe(4-Br)]P[dBip]-OH; lactam 6-9) |  |  | 
3 |  |  |  | CCCC[C@H](NC(=O)[C@@H]1C[C@@H]2CCCC[C@@H]2N1C(=O)[C@@H]1CCCCNC(=O)CC[C@H](NC(=O)[C@H](CC(C)C)NC(=O)[C@@H](CCCNC(=N)N)NC(=O)[C@@H]2CCCCN2C(=O)[C@H](CCCCNC(=N)N)NC(=O)[C@H](CCC(N)=O)NC(=O)[C@@H](CCCNC(=N)N)NC(=O)C(C)(C)C(=O)NCCc2c[nH]cn2)C(=O)N[C@@H](Cc2c[nH]cn2)C(=O)N[C@@H](CC2CCNCC2)C(=O)N1)C(=O)N1CCC[C@H]1C(=O)N[C@H](Cc1ccc(-c2ccccc2)cc1)C(=O)O [Example 2] ({Malonyl(2,2-Me2,histaminyl)}-[dR]Q[hArg][Pip][dR]LEH[Ala(piperidin-4-yl)]K[Oic][Nle]P[dBip]-OH; lactam 7-10) | 15.8 nM | 31.2% | > 10000 nM
4 |  |  |  | CC(C)C[C@H](NC(=O)[C@@H](CCCNC(=N)N)NC(=O)[C@@H]1CCCCN1C(=O)[C@H](CCCCNC(=N)N)NC(=O)[C@H](CCC(N)=O)NC(=O)[C@@H](CCCNC(=N)N)NC(=O)C(C)(C)C(=O)NCCc1c[nH]cn1)C(=O)N[C@H]1CCC(=O)NCCCC[C@@H](C(=O)N2[C@H](C(=O)N[C@@H](Cc3ccc(Br)cc3)C(=O)N3CCC[C@H]3C(=O)N[C@H](Cc3ccc(-c4ccccc4)cc3)C(=O)O)C[C@@H]3CCCC[C@@H]32)NC(=O)[C@H](CC2CCNCC2)NC(=O)[C@H](Cc2c[nH]cn2)NC1=O [Example 1] ({Malonyl(2,2-Me2,histaminyl)}-[dR]Q[hArg][Pip][dR]LEH[Ala(piperidin-4-yl)]K[Oic][Phe(4-Br)]P[dBip]-OH; lactam 7-10) | 3.16 nM | 70.5% | > 10000 nM
5 |  |  |  | CC(C)C[C@@H]1NC(=O)[C@@H](CCCNC(=N)N)NC(=O)[C@@H](NC(=O)[C@H](CCCCNC(=N)N)NC(=O)[C@H](CCC(N)=O)NC(=O)C(C)(C)C(=O)NCCc2c[nH]cn2)CC(=O)NCCCC[C@@H](C(=O)N[C@@H](CC2CCNCC2)C(=O)NCC(=O)N2[C@H](C(=O)N[C@@H](Cc3ccc(Br)cc3)C(=O)N3CCC[C@H]3C(=O)N[C@H](Cc3ccc(-c4ccccc4)cc3)C(=O)O)C[C@@H]3CCCC[C@@H]32)NC(=O)CNC1=O [Example 6] ({Malonyl(2,2-Me2,histaminyl)}-Q[hArg]D[dR]LGK[Ala(piperidin-4-yl)]G[Oic][Phe(4-Br)]P[dBip]-OH; lactam 3-7) | 12.6 nM | 30.5% | > 100000 nM
